Experimental data published in patent US11274129B2, “Methods for protein tyrosine phosphorylation profiling with variant SH2 domains” (priority 2016, dated 2022).
pKd: −log10 of the molar value.

How the values were obtained:
[1] = biological target: MidT-pTyr^324 peptide EPQpYEEIPIYL; details: peptide MidT-pTyr^324 EPQpYEEIPIYL; read-out: equilibrium dissociation constant (Kd); cited from earlier work
[2] = biological target: ShcA-pTyr^317 peptide DPSpYVNVQNL; details: peptide ShcA-pTyr^317 DPSpYVNVQNL; read-out: equilibrium dissociation constant (Kd); cited from earlier work
[3] = biological target: EGFR-pTyr^1110 peptide NPVpYHNQPLN; details: peptide EGFR-pTyr^1110 NPVpYHNQPLN; read-out: equilibrium dissociation constant (Kd); cited from earlier work
[4] = biological target: ShcA-pTyr^239 peptide DHQpYYNDFPG; details: peptide ShcA-pTyr^239 DHQpYYNDFPG; read-out: equilibrium dissociation constant (Kd); cited from earlier work
[5] = system: mixture of 54 different pTyr-including peptides derived from 54 TK activation loops; assay: Capture of pTyr-including peptides from a mixture of TK activation loop peptides, scheduled PRM; type: binding
Procedure: Equal molar amounts (10 nmole) of the wild-type (wt) human Src SH2 domain and the DM and TrM human Src SH2 Superbinders (SEQ ID NO: 14 and 5, respectively) expressed with His6 and GST tags were used to capture pTyr-including peptides from a mixture of 54 different pTyr-including peptides (10 pmole each) derived from 54 TK activation loops. The isolated peptides were identified by PRM and quantified based on the corresponding MS peak area. 1.8% of the eluted peptides were injected into a Q-Exactive (Thermo Fisher) preceded with a nano-LC system.
Shown are the amounts of pTyr-including peptides captured, based on the corresponding peak area of PRM signal, by each of the parent human Src SH2 domain and the DM and TrM human Src SH2 Superbinders.

[6] = biological target: RSKL-pTyr^423 peptide YQHpYDLDLKD; details: peptide RSKL-pTyr^423 YQHpYDLDLKD; read-out: equilibrium dissociation constant (Kd); cited from earlier work
[7] = biological target: EGFR-pTyr^978 peptide PQRpYLVIQGD; details: peptide EGFR-pTyr^978 PQRpYLVIQGD; read-out: equilibrium dissociation constant (Kd); cited from earlier work
[8] = biological target: VEGFR1-pTyr^1213 peptide DVRpYVNAAKF; details: peptide VEGFR1-pTyr^1213 DVRpYVNAAKF; read-out: equilibrium dissociation constant (Kd); cited from earlier work
Designed peptide GGpYGG = details: read-out: equilibrium dissociation constant (Kd); cited from earlier work

Thr8Val/Cys10Ala: double-mutant human Src SH2 domain
pKd [1]: 7.57 | pKd [2]: 6.41 | pKd [3]: 5.35 | pKd [4]: 7.00 | number of the 54 pTyr-including peptides captured / detected by PRM ([5]; 10 nmole SH2 domain, 10 pmole each peptide): 32 | PRM signal peak area ([5]; BLK (pTyr389) IIDSEpYTAQEGAK, fragment ion b2): 0 | PRM signal peak area ([5]; BMX (pTyr566) YVLDDQpYVSSVGTK, fragment ion b2): 0 | PRM signal peak area ([5]; BTK (pTyr551) YVLDDEpYTSSVGSK, fragment ion b2): 18,246 | PRM signal peak area ([5]; DDR1 (pTyr796/797) NLYAGDpYpYR, fragment ion b2): 43,173 | PRM signal peak area ([5]; DDR2 (pTyr740/741) NLYSGDpYpYR, fragment ion y6): 16,232 | PRM signal peak area ([5]; EPHA1 (pTyr781) LLDDFDGTpYETQGGK, fragment ion y9): 12,335 | PRM signal peak area ([5]; EPHA2 (pTyr772) VLEDDPEATpYTTSGGK, fragment ion y11): 4,858 | PRM signal peak area ([5]; EPHA3 (pTyr779) VLEDDPEAApYTTR, fragment ion y8): 0 | PRM signal peak area ([5]; EPHA6 (pTyr830) VLEDDPEAApYTTTGGK, fragment ion b2): 51,066 | PRM signal peak area ([5]; EPHA8 (pTyr793) VLEDDPDAApYTTTGGK, fragment ion y11): 57,102 | PRM signal peak area ([5]; EPHB1 (pTyr778) YLQDDTSDPTpYTSSLGGK, fragment ion y10): 0 | PRM signal peak area ([5]; EPHB2 (pTyr780) FLEDDTSDPTpYTSALGGK, fragment ion Y3): 98,045 | PRM signal peak area ([5]; EPHB3 (pTyr792) FLEDDPSDPTpYTSSLGGK, fragment ion y10): 14,654 | PRM signal peak area ([5]; EPHB4 (pTyr774) FLEENSSDPTpYTSSLGGK, fragment ion y10): 0 | PRM signal peak area ([5]; ERBB2 (pTyr877) LLDIDETEpYHADGGK, fragment ion b3): 4,642 | PRM signal peak area ([5]; ERBB3 (pTyr866) QLLpYSEAK, fragment ion y2): 151,587 | PRM signal peak area ([5]; FER (pTyr714) QEDGGVpYSSSGLK, fragment ion y7): 0 | PRM signal peak area ([5]; FES (pTyr713) EEADGVpYAASGGLR, fragment ion y8): 0 | PRM signal peak area ([5]; FGFR1 (pTyr653/654) DIHHIDpYpYK, fragment ion b6): 28,967 | PRM signal peak area ([5]; FGFR2 (pTyr656/657) DINNIDpYpYK, fragment ion y4): 39,469 | PRM signal peak area ([5]; FGFR3 (pTyr647/648) DVHNLDpYpYK, fragment ion b3): 64,641 | PRM signal peak area ([5]; FGFR4 (pTyr642/643) GVHHIDpYpYK, fragment ion b3): 29,983 | PRM signal peak area ([5]; FRK (pTyr387) VDNEDIpYESR, fragment ion y6): 0 | PRM signal peak area ([5]; GSK3 (pTyr279/216) GEPNVSpYICSR, fragment ion y6): 0 | PRM signal peak area ([5]; HCK (pTyr411) VIEDNEpYTAR, fragment ion b2): 0 | PRM signal peak area ([5]; INSRR (pTyr1145/1146) DVYETDpYpYR, fragment ion y5): 7,794 | PRM signal peak area ([5]; ITK (pTyr512) FVLDDQpYTSSTGTK, fragment ion y11): 0 | PRM signal peak area ([5]; JAK1 (pTyr1034/1035) EpYpYTVK, fragment ion y2): 46,193 | PRM signal peak area ([5]; JAK2 (pTyr221) IQDpYHILTR, fragment ion Y3): 39,232 | PRM signal peak area ([5]; JAK3 (pTyr980/981) DpYpYVVR, fragment ion y2): 10,521 | PRM signal peak area ([5]; KIT (pTyr823) NDSNpYVVK, fragment ion b2): 0 | PRM signal peak area ([5]; LMTK2 (pTyr295) EDpYIETDDK, fragment ion b2): 1,124 | PRM signal peak area ([5]; LMTK3 (pTyr296/297) EDpYpYLTPER, fragment ion y3): 78,610 | PRM signal peak area ([5]; MERTK (pTyr753/754) IYSGDpYpYR, fragment ion b2): 0 | PRM signal peak area ([5]; MET (pTyr1234/1235) EpYpYSVHNK, fragment ion y2): 70,811 | PRM signal peak area ([5]; MUSK (pTyr755/756) NIYSADpYpYK, fragment ion y2): 0 | PRM signal peak area ([5]; NTRK1 (pTyr680/681) DIYSTDpYpYR, fragment ion b2): 30,204 | PRM signal peak area ([5]; NTRK2 (pTyr706/707) DVYSTDpYpYR, fragment ion y4): 22,794 | PRM signal peak area ([5]; PGFRB (pTyr857) DSNpYISK, fragment ion y2): 0 | PRM signal peak area ([5]; PTK7 (pTyr960/961) DVYNSEpYpYHFR, fragment ion b2): 4,843 | PRM signal peak area ([5]; RET (pTyr905) DVYEEDSpYVK, fragment ion b2): 0 | PRM signal peak area ([5]; RON (pTyr1238/1239) EpYpYSVQQHR, fragment ion y4): 17,370 | PRM signal peak area ([5]; ROR1 (pTyr645/646) EIYSADpYpYR, fragment ion y6): 27,661 | PRM signal peak area ([5]; ROR2 (pTyr645/646) EVYAADpYpYK, fragment ion y5): 60,460 | PRM signal peak area ([5]; SRC (pTyr419) LIEDNEpYTAR, fragment ion b2): 0 | PRM signal peak area ([5]; SRMS (pTyr380) DDIpYSPSSSSK, fragment ion y8): 0 | PRM signal peak area ([5]; TEC (pTyr519) YVLDDQpYTSSSGAK, fragment ion b2): 4,818 | PRM signal peak area ([5]; TIE1 (pTyr1007) GEEVpYVK, fragment ion b2): 0 | PRM signal peak area ([5]; TIE2 (pTyr992) GQEVpYVK, fragment ion b2): 0 | PRM signal peak area ([5]; TXK (pTyr420) YVLDDEpYVSSFGAK, fragment ion b2): 46,128 | PRM signal peak area ([5]; TYK2 (pTyr1054/1055) AVPEGHEpYpYR, fragment ion y6): 9,679 | PRM signal peak area ([5]; VGFR1 (pTyr1053) NPDpYVR, fragment ion y3): 0 | PRM signal peak area ([5]; VGFR2 (pTyr1059) DPDpYVR, fragment ion Y3): 0 | pKd [6]: 6.05 | pKd [7]: 6.41 | pKd [8]: 5.74 | pKd (Designed peptide GGpYGG): 4.60
